SMILES strings stand for the structures.

Assay in all cases: biochemical
What all share (parameters): Ubiquigent DUB profiler selectivity panel, remaining enzyme activity as % of control
Common to all, as to conditions: read-out: % of control remaining

In one experiment the target is T1, USP45 (Homo sapiens, UniProt Q70EL2).
T1 sequence (Q70EL2 1-814): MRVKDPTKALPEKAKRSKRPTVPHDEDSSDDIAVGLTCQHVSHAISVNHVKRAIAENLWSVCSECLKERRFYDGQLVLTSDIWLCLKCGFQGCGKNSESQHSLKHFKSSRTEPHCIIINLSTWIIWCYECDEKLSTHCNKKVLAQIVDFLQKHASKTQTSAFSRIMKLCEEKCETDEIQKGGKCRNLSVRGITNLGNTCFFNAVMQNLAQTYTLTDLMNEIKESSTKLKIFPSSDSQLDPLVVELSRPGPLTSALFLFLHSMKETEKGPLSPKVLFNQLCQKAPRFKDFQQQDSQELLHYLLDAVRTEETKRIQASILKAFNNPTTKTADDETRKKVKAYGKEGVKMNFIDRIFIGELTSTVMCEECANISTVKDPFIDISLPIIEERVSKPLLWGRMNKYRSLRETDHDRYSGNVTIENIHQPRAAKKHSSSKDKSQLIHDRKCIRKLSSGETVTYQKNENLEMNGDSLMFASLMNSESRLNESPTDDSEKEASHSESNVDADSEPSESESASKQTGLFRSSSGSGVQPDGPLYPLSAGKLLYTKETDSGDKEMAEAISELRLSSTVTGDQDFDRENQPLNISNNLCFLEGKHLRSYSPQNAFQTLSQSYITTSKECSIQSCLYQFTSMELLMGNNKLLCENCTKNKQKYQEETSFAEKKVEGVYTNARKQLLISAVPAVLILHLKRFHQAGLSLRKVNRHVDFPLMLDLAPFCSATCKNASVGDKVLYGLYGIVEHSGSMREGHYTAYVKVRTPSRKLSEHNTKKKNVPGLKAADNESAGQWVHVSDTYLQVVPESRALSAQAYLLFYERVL
The gist of the method:
(§1)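 In YFP-PRKN-overexpressing hTERT-RPE1 cells, 1 h antimycin A plus oligomycin A (1 μM each) with CMPD-39, then Western blot of TOMM20 ubiquitylation. Target engagement: 2 h compound, then 10 min HA-Ub-PA at 37°C, read as USP30 shift. DUB panel (>40 enzymes) screened at 1-100 μM.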

A further experiment addresses USP1/UAF1 (Homo sapiens, UniProt O94782). Summed up: as §1
A further experiment concerns the target T2, UCHL1 (Homo sapiens, UniProt P09936).
T2 sequence (P09936 1-223): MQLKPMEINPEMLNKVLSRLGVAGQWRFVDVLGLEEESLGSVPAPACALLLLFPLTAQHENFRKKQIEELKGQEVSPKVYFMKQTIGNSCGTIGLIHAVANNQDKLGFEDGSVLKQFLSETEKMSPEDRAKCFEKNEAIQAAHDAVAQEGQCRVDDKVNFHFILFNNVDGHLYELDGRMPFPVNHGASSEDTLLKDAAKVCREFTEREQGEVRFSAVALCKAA
Summed up:
as §1

For another experiment, the target named is T3, OTUD3 (Homo sapiens, UniProt Q5T2D3).
T3 sequence (Q5T2D3 1-398): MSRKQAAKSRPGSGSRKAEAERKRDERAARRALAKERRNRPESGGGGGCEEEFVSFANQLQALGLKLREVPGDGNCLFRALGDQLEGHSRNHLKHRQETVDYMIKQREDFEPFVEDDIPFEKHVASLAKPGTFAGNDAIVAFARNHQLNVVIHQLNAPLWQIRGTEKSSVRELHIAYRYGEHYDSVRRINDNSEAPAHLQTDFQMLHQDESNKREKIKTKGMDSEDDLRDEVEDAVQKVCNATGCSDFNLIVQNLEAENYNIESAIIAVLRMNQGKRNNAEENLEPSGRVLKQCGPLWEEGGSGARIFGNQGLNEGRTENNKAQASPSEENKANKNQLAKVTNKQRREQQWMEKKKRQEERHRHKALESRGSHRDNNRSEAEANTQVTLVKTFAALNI
The gist of the method: as §1

USP1/UAF1, sequence (O94782 whole entry): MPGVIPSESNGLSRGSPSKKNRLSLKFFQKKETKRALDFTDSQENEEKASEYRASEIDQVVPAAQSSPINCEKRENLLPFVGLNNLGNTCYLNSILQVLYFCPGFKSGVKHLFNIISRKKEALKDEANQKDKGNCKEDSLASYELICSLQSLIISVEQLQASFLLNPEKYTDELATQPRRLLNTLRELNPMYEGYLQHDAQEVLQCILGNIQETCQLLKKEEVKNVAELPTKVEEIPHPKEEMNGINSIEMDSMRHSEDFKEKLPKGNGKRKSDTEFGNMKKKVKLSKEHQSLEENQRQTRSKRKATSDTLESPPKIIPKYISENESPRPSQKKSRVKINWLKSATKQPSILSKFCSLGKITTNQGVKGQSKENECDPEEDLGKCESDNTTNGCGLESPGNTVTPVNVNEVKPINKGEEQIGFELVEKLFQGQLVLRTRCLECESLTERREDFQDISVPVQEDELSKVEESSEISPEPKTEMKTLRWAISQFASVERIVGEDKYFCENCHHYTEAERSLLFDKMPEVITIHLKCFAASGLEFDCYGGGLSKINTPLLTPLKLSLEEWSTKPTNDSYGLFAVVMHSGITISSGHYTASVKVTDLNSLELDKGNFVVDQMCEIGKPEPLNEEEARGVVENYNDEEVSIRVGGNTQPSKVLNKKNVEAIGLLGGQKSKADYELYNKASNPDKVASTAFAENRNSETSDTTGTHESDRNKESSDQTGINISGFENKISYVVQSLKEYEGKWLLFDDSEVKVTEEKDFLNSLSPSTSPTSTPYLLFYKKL
USP1/UAF1, sequence (Q8TAF3 whole entry partner): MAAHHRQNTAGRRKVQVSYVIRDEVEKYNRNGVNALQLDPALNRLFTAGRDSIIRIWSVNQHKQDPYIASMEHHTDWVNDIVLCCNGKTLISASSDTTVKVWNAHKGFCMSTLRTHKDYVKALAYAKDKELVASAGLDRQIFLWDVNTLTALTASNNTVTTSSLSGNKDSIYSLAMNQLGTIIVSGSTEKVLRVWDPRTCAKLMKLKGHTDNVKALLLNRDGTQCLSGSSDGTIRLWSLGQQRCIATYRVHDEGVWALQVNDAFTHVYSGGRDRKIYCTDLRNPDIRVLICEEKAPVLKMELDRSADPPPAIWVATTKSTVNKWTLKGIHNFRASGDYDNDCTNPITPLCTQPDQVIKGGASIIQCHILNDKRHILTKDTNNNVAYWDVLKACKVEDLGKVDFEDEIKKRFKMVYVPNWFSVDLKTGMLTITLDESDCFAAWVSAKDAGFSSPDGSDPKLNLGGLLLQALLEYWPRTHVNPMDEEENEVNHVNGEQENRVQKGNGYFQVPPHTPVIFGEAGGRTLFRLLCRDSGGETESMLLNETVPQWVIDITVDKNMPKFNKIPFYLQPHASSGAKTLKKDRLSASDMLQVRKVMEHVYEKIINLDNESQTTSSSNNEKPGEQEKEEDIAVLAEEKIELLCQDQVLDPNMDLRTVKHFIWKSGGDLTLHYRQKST

Consider `CC(C)(C)NS(=O)(=O)c1ccc(NC(=O)[C@H](Cc2ccccc2)NC(=O)c2ccc(F)cc2)cc1` [compound 39, CMPD-39], for which the remaining activity at 1 µM worked out at 98.8% at USP45, 98.6% at USP1/UAF1, 103% at UCHL1 and 105% at OTUD3. Further, the remaining activity at 10 µM amounted to 95% at USP45, 95.6% on USP1/UAF1, 98.5% on UCHL1 and 101% on OTUD3. The remaining activity at 100 µM on USP45 is 100%; on USP1/UAF1 it was 97.4%; at UCHL1, 96.3%; on OTUD3, 107%.

The record behind these values is publication PMC8645336, “Benchmarking a highly selective USP30 inhibitor for enhancement of mitophagy and pexophagy” (Life Science Alliance, 2021).
